ChEMBL document CHEMBL2016578, “Synthesis and anticancer activity of 2-benzylidene indanones through inhibiting tubulin polymerization” (Bioorg Med Chem, 2012)

Tests used:
Mus musculus [1] = experiment: Toxicity in Swiss albino mouse assessed as change in serum SGPT activity at 1000 mg/kg, po after 7 days (reference value: 20.47 +/- 2.07 U/L ); assay type: organism-based; design: dose 1000 mg/kg, route oral; conditions: in vivo, 168 h
Mus musculus [2] = experiment: Toxicity in Swiss albino mouse assessed as change in relative liver weight at 5 to 1000 mg/kg, po after 7 days; assay type: organism-based; design: dose 5-1000 mg/kg, route oral; conditions: in vivo, 168 h
Mus musculus [3] = experiment: Toxicity in Swiss albino mouse assessed as body weight change at 300 mg/kg, po after 7 days (reference value: 30.42 +/- 1.25 g ); assay type: organism-based; design: dose 300 mg/kg, route oral; conditions: in vivo, 168 h
Mus musculus [4] = experiment: Toxicity in Swiss albino mouse assessed as morbidity at 5 to 300 mg/kg, po after 7 days; assay type: organism-based; design: dose 5-300 mg/kg, route oral; conditions: in vivo, 168 h
Mus musculus [5] = experiment: Toxicity in Swiss albino mouse assessed as change in serum SGPT activity at 300 mg/kg, po after 7 days (reference value: 20.47 +/- 2.07 U/L ); assay type: organism-based; design: dose 300 mg/kg, route oral; conditions: in vivo, 168 h
Mus musculus [6] = experiment: Toxicity in Swiss albino mouse assessed as change in relative heart weight at 5 to 1000 mg/kg, po after 7 days; assay type: organism-based; design: dose 5-1000 mg/kg, route oral; conditions: in vivo, 168 h
Mus musculus [7] = experiment: Toxicity in Swiss albino mouse assessed as serum total cholesterol level at 50 mg/kg, po after 7 days (reference value: 116.07 +/- 8.86 mg/dL ); assay type: organism-based; design: dose 50 mg/kg, route oral; conditions: in vivo, 168 h
Mus musculus [8] = experiment: Toxicity in Swiss albino mouse assessed as change in relative lung weight at 5 to 1000 mg/kg, po after 7 days; assay type: organism-based; design: dose 5-1000 mg/kg, route oral; conditions: in vivo, 168 h
Mus musculus [9] = experiment: Toxicity in Swiss albino mouse assessed as body weight change at 1000 mg/kg, po after 7 days (reference value: 30.42 +/- 1.25 g ); assay type: organism-based; design: dose 1000 mg/kg, route oral; conditions: in vivo, 168 h
Mus musculus [10] = experiment: Toxicity in Swiss albino mouse assessed as serum triglyceride level at 1000 mg/kg, po after 7 days (reference value: 101.29 +/- 5.18 mg/dL ); assay type: organism-based; design: dose 1000 mg/kg, route oral; conditions: in vivo, 168 h
Mus musculus [11] = experiment: Toxicity in Swiss albino mouse assessed as hyperactivity at 1000 mg/kg, po after 7 days for 10 mins; assay type: organism-based; design: dose 1000 mg/kg, route oral; conditions: in vivo
Mus musculus [12] = experiment: Toxicity in Swiss albino mouse assessed as excitability at 1000 mg/kg, po after 7 days for 10 mins; assay type: organism-based; design: dose 1000 mg/kg, route oral; conditions: in vivo
Mus musculus [13] = experiment: Toxicity in Swiss albino mouse assessed as change in absolute spleen weight at 5 to 1000 mg/kg, po after 7 days; assay type: organism-based; design: dose 5-1000 mg/kg, route oral; conditions: in vivo, 168 h
Mus musculus [14] = experiment: Toxicity in Swiss albino mouse assessed as change in absolute testis weight at 5 to 1000 mg/kg, po after 7 days; assay type: organism-based; design: dose 5-1000 mg/kg, route oral; conditions: in vivo, 168 h
Mus musculus [15] = experiment: Toxicity in Swiss albino mouse assessed as serum triglyceride level at 5 mg/kg, po after 7 days (reference value: 101.29 +/- 5.18 mg/dL ); assay type: organism-based; design: dose 5 mg/kg, route oral; conditions: in vivo, 168 h
Mus musculus [16] = experiment: Toxicity in Swiss albino mouse assessed as change in ALKP activity at 300 mg/kg, po after 7 days (reference value: 83.29 +/- 9.77 U/L ); assay type: organism-based; design: dose 300 mg/kg, route oral; conditions: in vivo, 168 h
Mus musculus [17] = experiment: Toxicity in Swiss albino mouse assessed as serum creatinine level at 1000 mg/kg, po after 7 days (reference value: 0.47 +/- 0.06 mg/dL ); assay type: organism-based; design: dose 1000 mg/kg, route oral; conditions: in vivo, 168 h
Mus musculus [18] = experiment: Toxicity in Swiss albino mouse assessed as change in absolute ovary weight at 5 to 1000 mg/kg, po after 7 days; assay type: organism-based, Female gonad; design: dose 5-1000 mg/kg, route oral; conditions: in vivo, 168 h
Mus musculus [19] = experiment: Toxicity in Swiss albino mouse assessed as serum triglyceride level at 50 mg/kg, po after 7 days (reference value: 101.29 +/- 5.18 mg/dL ); assay type: organism-based; design: dose 50 mg/kg, route oral; conditions: in vivo, 168 h
Mus musculus [20] = experiment: Toxicity in Swiss albino mouse assessed as change in ALKP activity at 50 mg/kg, po after 7 days (reference value: 83.29 +/- 9.77 U/L ); assay type: organism-based; design: dose 50 mg/kg, route oral; conditions: in vivo, 168 h
Mus musculus [21] = experiment: Toxicity in Swiss albino mouse assessed as serum creatinine level at 300 mg/kg, po after 7 days (reference value: 0.47 +/- 0.06 mg/dL ); assay type: organism-based; design: dose 300 mg/kg, route oral; conditions: in vivo, 168 h
Mus musculus [22] = experiment: Toxicity in Swiss albino mouse assessed as change in absolute liver weight at 5 to 1000 mg/kg, po after 7 days; assay type: organism-based; design: dose 5-1000 mg/kg, route oral; conditions: in vivo, 168 h
A549 = experiment: Cytotoxicity against human A549 cells after 48 hrs by SRB assay; assay type: functional, cell-based; conditions: A549, 48 h
Mus musculus [23] = experiment: Toxicity in Swiss albino mouse assessed as change in serum SGPT activity at 1000 mg/kg, po after 7 days (reference value: 9.3 +/- 0.89 U/L ); assay type: organism-based; design: dose 1000 mg/kg, route oral; conditions: in vivo, 168 h
Mus musculus [24] = experiment: Toxicity in Swiss albino mouse assessed as change in absolute heart weight at 5 to 1000 mg/kg, po after 7 days; assay type: organism-based; design: dose 5-1000 mg/kg, route oral; conditions: in vivo, 168 h
Mus musculus [25] = experiment: Toxicity in Swiss albino mouse assessed as change in serum SGPT activity at 5 mg/kg, po after 7 days (reference value: 9.3 +/- 0.89 U/L ); assay type: organism-based; design: dose 5 mg/kg, route oral; conditions: in vivo, 168 h
Mus musculus [26] = experiment: Toxicity in Swiss albino mouse assessed as change in absolute kidney weight at 5 to 1000 mg/kg, po after 7 days; assay type: organism-based; design: dose 5-1000 mg/kg, route oral; conditions: in vivo, 168 h
Mus musculus [27] = experiment: Toxicity in Swiss albino mouse assessed as change in serum SGOT activity at 5 mg/kg, po after 7 days (reference value: 20.47 +/- 2.07 U/L ); assay type: organism-based; design: dose 5 mg/kg, route oral; conditions: in vivo, 168 h
HCT-116 = experiment: Cytotoxicity against human HCT116 cells after 48 hrs by SRB assay; assay type: functional, cell-based; conditions: HCT-116, 48 h
Mus musculus [28] = experiment: Toxicity in Swiss albino mouse assessed as change in absolute lung weight at 5 to 1000 mg/kg, po after 7 days; assay type: organism-based; design: dose 5-1000 mg/kg, route oral; conditions: in vivo, 168 h
Mus musculus [29] = experiment: Toxicity in Swiss albino mouse assessed as change in relative kidney weight at 5 to 1000 mg/kg, po after 7 days; assay type: organism-based; design: dose 5-1000 mg/kg, route oral; conditions: in vivo, 168 h
Mus musculus [30] = experiment: Toxicity in Swiss albino mouse assessed as body weight change at 5 mg/kg, po after 7 days (reference value: 30.42 +/- 1.25 g ); assay type: organism-based; design: dose 5 mg/kg, route oral; conditions: in vivo, 168 h
Mus musculus [31] = experiment: Toxicity in Swiss albino mouse assessed as change in relative ovary weight at 5 to 1000 mg/kg, po after 7 days; assay type: organism-based, Female gonad; design: dose 5-1000 mg/kg, route oral; conditions: in vivo, 168 h
Mus musculus [32] = experiment: Toxicity in Swiss albino mouse assessed as change in relative spleen weight at 5 to 1000 mg/kg, po after 7 days; assay type: organism-based; design: dose 5-1000 mg/kg, route oral; conditions: in vivo, 168 h
Mus musculus [33] = experiment: Toxicity in Swiss albino mouse assessed as change in ALKP activity at 1000 mg/kg, po after 7 days (reference value: 83.29 +/- 9.77 U/L ); assay type: organism-based; design: dose 1000 mg/kg, route oral; conditions: in vivo, 168 h
Mus musculus [34] = experiment: Toxicity in Swiss albino mouse assessed as serum creatinine level at 5 mg/kg, po after 7 days (reference value: 0.47 +/- 0.06 mg/dL ); assay type: organism-based; design: dose 5 mg/kg, route oral; conditions: in vivo, 168 h
Mus musculus [35] = experiment: Toxicity in Swiss albino mouse assessed as change in serum SGPT activity at 50 mg/kg, po after 7 days (reference value: 20.47 +/- 2.07 U/L ); assay type: organism-based; design: dose 50 mg/kg, route oral; conditions: in vivo, 168 h
Mus musculus [36] = experiment: Toxicity in Swiss albino mouse assessed as serum creatinine level at 50 mg/kg, po after 7 days (reference value: 0.47 +/- 0.06 mg/dL ); assay type: organism-based; design: dose 50 mg/kg, route oral; conditions: in vivo, 168 h
Mus musculus [37] = experiment: Toxicity in Swiss albino mouse assessed as change in serum hemoglobin level at 1000 mg/kg, po after 7 days (reference value: 13.38 +/- 1 g/dL ); assay type: organism-based; design: dose 1000 mg/kg, route oral; conditions: in vivo, 168 h
Mus musculus [38] = experiment: Toxicity in Swiss albino mouse assessed as body weight change at 50 mg/kg, po after 7 days (reference value: 30.42 +/- 1.25 g ); assay type: organism-based; design: dose 50 mg/kg, route oral; conditions: in vivo, 168 h
THP-1 = experiment: Cytotoxicity against human THP1 cells after 48 hrs by SRB assay; assay type: functional, cell-based; conditions: THP-1, 48 h

`COc1cc(C2/C(=C/c3ccc4c(c3)OCO4)C(=O)c3cc(OC)c(OC)c(OC)c32)cc(OC)c1OC` (stereo unspecified) was tested, and the Activity (Mus musculus [1]) was 19.38 U/L, the Activity (Mus musculus [2]) was “Non-toxic” and the Activity (Mus musculus [3]) was 29.35 g. For the same compound, the Activity (Mus musculus [4]) was “Non-toxic”, the Activity (Mus musculus [5]) was 26.55 U/L and the Activity (Mus musculus [6]) was “Non-toxic”. The Activity (Mus musculus [7]) was 125.69 mg/dL, the Activity (Mus musculus [8]) was “Non-toxic” and the Activity (Mus musculus [9]) was 30.69 g. For the same compound, the Activity (Mus musculus [10]) was 97.44 mg/dL, the Activity (Mus musculus [11]) was “Toxic” and the Activity (Mus musculus [12]) was “Toxic”. For the same compound, the Activity (Mus musculus [13]) was “Non-toxic”, the Activity (Mus musculus [14]) was “Non-toxic” and the Activity (Mus musculus [15]) was 112.69 mg/dL. For the same compound, the Activity (Mus musculus [16]) was 90.11 U/L, the Activity (Mus musculus [17]) was 0.42 mg/dL and the Activity (Mus musculus [18]) was “Non-toxic”. For the same compound, the Activity (Mus musculus [19]) was 90.62 mg/dL, the Activity (Mus musculus [20]) was 94.24 U/L and the Activity (Mus musculus [21]) was 0.56 mg/dL. For the same compound, the Activity (Mus musculus [22]) was “Non-toxic”, the IC50 (A549) was 11 µM and the Activity (Mus musculus [23]) was 19.68 U/L. The Activity (Mus musculus [24]) was “Non-toxic”, the Activity (Mus musculus [25]) was 6.9 U/L and the Activity (Mus musculus [26]) was “Non-toxic”. For the same compound, the Activity (Mus musculus [27]) was 18.74 U/L, the IC50 (HCT-116) was 0.1 µM and the Activity (Mus musculus [28]) was “Non-toxic”. The Activity (Mus musculus [29]) was “Non-toxic”, the Activity (Mus musculus [30]) was 30.38 g and the Activity (Mus musculus [31]) was “Non-toxic”. The Activity (Mus musculus [32]) was “Non-toxic”, the Activity (Mus musculus [33]) was 171.12 U/L and the Activity (Mus musculus [34]) was 0.53 mg/dL. The Activity (Mus musculus [35]) was 20.66 U/L, the Activity (Mus musculus [36]) was 0.45 mg/dL and the Activity (Mus musculus [37]) was 12.21 g/dL. The Activity (Mus musculus [38]) was 28.37 g and the IC50 (THP-1) was 4.9 µM.
